# Where a SMILES comes first, the peptide text is derived from it. Bridges are numbered along the chain shown (N, C = ends).
# Columns and labels:
# E. coli ATCC25922 [1] = experiment: Membrane permeability assay (propidium iodide uptake, flow cytometry); format: cell-based; settings: 1 × MIC (4 μM), 30 min 37 °C, 1 × 10^6 CFU/mL, PBS control 3.25%
# Experimental: The effect of C-LR18 on bacterial membrane permeability was measured using the propidium iodide (PI) uptake assay described in [22]. E. coli ATCC25922 in logarithmic growth phase were adjusted to 1 × 10^6 CFU/mL. C-LR18 was added with the final concentration of 4 μM. The mixtures were incubated for 30 min at 37 °C. […] After eliminating unbound dye by washing twice with PBS, the bacterial cells were detected using a flow cytometer (Ex = 535 nm/Em = 615 nm). The results were analyzed using FlowJo 6.2.1 and GraphPad Prism 5 software.
# [2] = Half-life of peptides in plasma in vitro (HPLC); format: in vitro ADME, rat
# Experimental: Half-life of peptides in vitro was determined using HPLC according to the method described in [30]. Blood from SPF SD rats was collected in a centrifuge tube containing 0.5% heparin sodium via cardiac sampling. Plasma was separated and stored at −80 °C until analyzed. The plasma samples with final concentrations of 25 μg/mL, 50 μg/mL, 100 μg/mL, 200 μg/mL, 400 μg/mL, and 750 μg/mL were prepared by mixing 1500 μg/mL of antimicrobial peptides with rat plasma, then adding acetonitrile containing 0.1% TFA at 1/1 volume. After vortexing for 30 s, the samples were centrifuged at 14,000 r/min for 20 min, the supernatant was aspirated, sterilized using a 0.22 μm sterilization filter, and 30 μL of the sample was used for HPLC determination. After HPLC detection, the value of the chromatographic peak area was counted, the mathematical relationship between the sample concentration and the chromatographic peak area was calculated, and the standard curve was drawn. The standard curve was regressio-calculated by linear fitting Y = aX + b and weighted least square method (w = 1/c2).
# The 1 mg/mL peptide solution was mixed with SD rat plasma and incubated in a water bath at 37 °C. Samples were taken at different time points of 0, 20, 30, 40, 60, 80, 100, 120, 140, 160, 180, 200, 210, 240, 300, 400, 500, and 600 min. After vortexing for 30 s, the samples were centrifuged at 14,000 r/min for 20 min, the supernatant was aspirated and sterilized using a 0.22 μm sterilization filter, and 30 μL of the sample was used for HPLC determination. The experiment was repeated three times. The peak area measured by HPLC was substituted into the standard curve obtained by the above experiment, the peptide concentration at different time points was calculated, and the half-life of peptides in plasma was calculated.
# E. coli Y1 [3] = experiment: Bacterial colony number in mouse abdominal cavity; format: in vivo; settings: 24 h after treatment, three mice, control group 1 × 10^9 CFU/mL
# Experimental: One hour after the mice were intraperitoneally injected with 0.5 mL of E. coli Y1 suspension (10^9 CFU/mL), different doses of C-LR18 (2.5 mg/kg, 5 mg/kg, and 7.5 mg/kg) were injected into the mice through the tail vein, respectively. After 24 h, 2 mL sterile saline was injected into the abdominal cavity of the mice, and the mice were killed via cervical dislocation. The peritoneal cavity of mice was opened, the peritoneal fluid was absorbed, and the peritoneal fluid was diluted with sterilized MH medium in a double ratio. After coating the plate, the peritoneal fluid was cultured at 37 °C for 16–20 h, and the colony count was performed. Three mice were taken from each group.
# E. coli Y1 [4] = experiment: Bacterial load in liver and spleen of mice; format: in vivo; settings: 7.5 mg/kg tail vein 1 h after ip E. coli Y1, one mouse every 24 h
# Experimental: One hour after the mice were intraperitoneally injected with 0.5 mL of E. coli Y1 suspension (10^9 CFU/mL), C-LR18 was injected into the mice at a dose of 7.5 mg/kg through the tail vein. The normal saline group was used as negative control, and the polymyxin B group (1 mg/kg) was used as positive control. After that, one mouse was taken every 24 h, sacrificed via cervical dislocation, and the liver and spleen were removed, weighed, and added to PBS buffer for grinding at 3000 r/min for 2 min. The abrasive solution was diluted with sterile PBS (1:10,000), and 0.1 mL diluent was evenly coated in solid MH medium and cultured at 37 °C overnight. Colony counting was performed on the samples, and the bacterial colonization amount in liver and spleen was calculated.
# E. coli ATCC25922 [5] = experiment: Stability in protease, read out by MIC assay; format: in vitro ADME; settings: 1 mg/mL papain for 1 h
# Experimental: (§1) The MIC test was performed using the method recommended by the National Committee for Clinical Laboratory Standards (NCCLS) Standards and Guidelines, and the method was modified according to the characteristics of antimicrobial peptides. The bacteria were cultured at 37 °C for 16 h, and the microbial suspension was diluted to a final concentration of 5 × 10^5 CFU/mL. Then, 50 µL of bacterial solution was mixed with 50 µL of MHB containing different concentrations peptides (0.5–256 µM) in a 96-well plate. […] The assays were performed three times. Geometric mean MIC represents the average MIC of the peptide against all the tested strains.
# (§2) The stability of LR18 and C-LR18 in protease, serum, and gastrointestinal conditions was determined using MIC assay, as described previously.
# To detect the stability of peptides in protease, the peptides were diluted in 1 mg/mL of trypsin, pepsin, papain, and protease K, respectively, and incubated at 37 °C for 1 h. Then, the protease in the peptide solutions was inactivated in a water bath at 60 °C for 30 min. Subsequent steps were the same as for the MIC assay. The assays were performed three times.
# E. coli ATCC25922 [6] = experiment: Stability in serum, read out by MIC assay; format: in vitro ADME
# Experimental: as §1, §2
# To detect the stability of peptides in serum, the peptides were mixed with various concentrations of fetal bovine serum and mouse serum solutions, and the final concentrations of serum were 6.25%, 12.5%, 25%, and 50%. The MIC of peptides against E. coli ATCC25922 in the presence of different concentrations of serum was determined. Subsequent steps were the same as for the MIC assay. The assays were performed three times.
structure (smiles),measurement,setting,value
CC(C)C[C@@H]1NC(=O)[C@H](CCCNC(=N)N)NC(=O)[C@H](CCCNC(=N)N)NC(=O)[C@H](CC(C)C)NC(=O)[C@H](CC(C)C)NC(=O)[C@H](CCCNC(=N)N)NC(=O)[C@H](CC(C)C)NC(=O)[C@@H]2CCCN2C(=O)[C@H](CCCNC(=N)N)NC(=O)[C@H](CCCNC(=N)N)NC(=O)[C@@H]2CCCN2C(=O)[C@H](CC(C)C)NC(=O)[C@H](CCCNC(=N)N)NC(=O)[C@H](CC(C)C)NC(=O)[C@H](CC(C)C)NC(=O)[C@H](CCCNC(=N)N)NC(=O)[C@H](CCCNC(=N)N)NC(=O)[C@H](CC(C)C)NC(=O)[C@@H](N)CSSC[C@@H](C(=O)O)NC1=O [C-LR18] (H-CLRRLLRLPRRPLRLLRRLC-OH; disulfide 1-20; N-terminus and C-terminus assumed),PI fluorescence of treated cells (PI-A+),E. coli ATCC25922 [1],60.6%
same,half-life,"[2]; 1 mg/mL peptide solution mixed with SD rat plasma (heparin), 37 °C water bath, 0–600 min, HPLC, repeated three times",3.49 ± 0.337 h
same,peptide degraded in plasma,"[2]; after 210 min, rat plasma 37 °C, HPLC",More than half
same,peptide detected in plasma samples,"[2]; after 600 min, rat plasma 37 °C, HPLC",no C-LR18 could be detected
same,half-life in rat plasma relative to LR18,[2]; in vitro rat plasma,3.37 times
same,prolongation of half-life in rat plasma versus LR18,[2]; in vitro rat plasma,2.4555 h
same,number of colonies in mouse abdominal cavity,E. coli Y1 [3]; 2.5 mg/kg,10^7 CFU/mL
same,number of colonies in mouse abdominal cavity,E. coli Y1 [3]; 5.0 mg/kg,10^6 CFU/mL
same,number of colonies in mouse abdominal cavity,E. coli Y1 [3]; 7.5 mg/kg,10^4 CFU/mL
same,bacterial colonization in liver and spleen,E. coli Y1 [4],significantly less than that in the negative control group
same,change of antibacterial activity after papain,E. coli ATCC25922 [5],remained unchanged
same,increase of MIC,E. coli ATCC25922 [6]; 50% serum or artificial gut solution for 30 min (abstract),4 fold
same,increase of MIC,E. coli ATCC25922 [6]; serum concentration 50%,4 times
